ChEMBL document CHEMBL3091428, “Synthesis and initial biological evaluation of substituted 1-phenylamino-2-thio-4,5-dimethyl-1H-imidazole derivatives” (Bioorg Med Chem Lett, 2013)
In brackets after ≈: the same amount, converted by molar mass.

Legend:
Assay type in all cases: functional
Pichia kudriavzevii = experiment: Antimicrobial activity against Candida krusei ATCC 6258 after 24 hrs by broth microdilution method; conditions: ATCC 6258, 24 h
Nakaseomyces glabratus = experiment: Antimicrobial activity against Candida glabrata ATCC 90030 after 24 hrs by broth microdilution method; conditions: ATCC 90030, 24 h
Listeria monocytogenes = experiment: Antimicrobial activity against Listeria monocytogenes ATCC 19115 after 24 hrs by broth microdilution method; conditions: ATCC 19115, 24 h
Candida albicans = experiment: Antimicrobial activity against Candida albicans ATCC 90028 after 24 hrs by broth microdilution method; conditions: ATCC 90028, 24 h
Staphylococcus aureus = experiment: Antimicrobial activity against Staphylococcus aureus ATCC 25923 after 24 hrs by broth microdilution method; conditions: ATCC 25923, 24 h
Enterococcus faecalis [1] = experiment: Antimicrobial activity against Enterococcus faecalis ATCC 51299 after 24 hrs by broth microdilution method; conditions: ATCC 51299, 24 h
Enterococcus faecalis [2] = experiment: Antimicrobial activity against Enterococcus faecalis ATCC 29212 after 24 hrs by broth microdilution method; conditions: ATCC 29212, 24 h
Pseudomonas aeruginosa = experiment: Antimicrobial activity against Pseudomonas aeruginosa ATCC 27853 after 24 hrs by broth microdilution method; conditions: ATCC 27853, 24 h
Klebsiella pneumoniae = experiment: Antimicrobial activity against Klebsiella pneumoniae ATCC 13883 after 24 hrs by broth microdilution method; conditions: ATCC 13883, 24 h
Escherichia coli [3] = experiment: Antimicrobial activity against Escherichia coli ATCC 25922 after 24 hrs by broth microdilution method; conditions: ATCC 25922, 24 h
Escherichia coli [4] = experiment: Antimicrobial activity against Escherichia coli ATCC 35218 after 24 hrs by broth microdilution method; conditions: ATCC 35218, 24 h

| Structure (SMILES) | MIC (Pichia kudriavzevii) [µg/mL] | MIC (Nakaseomyces glabratus) [µg/mL] | MIC (Listeria monocytogenes) [µg/mL] | MIC (Candida albicans) [µg/mL] | MIC (Staphylococcus aureus) [µg/mL] | MIC (Enterococcus faecalis [1]) [µg/mL] | MIC (Enterococcus faecalis [2]) [µg/mL] | MIC (Pseudomonas aeruginosa) [µg/mL] | MIC (Klebsiella pneumoniae) [µg/mL] | MIC (Escherichia coli [3]) [µg/mL] | MIC (Escherichia coli [4]) [µg/mL] |
| --- | --- | --- | --- | --- | --- | --- | --- | --- | --- | --- | --- |
| Cc1ccc(Nn2c(SCC(=O)c3cccc(Cl)c3)nc(C)c2C)cc1 | 800 (≈ 2070 µM) | 800 (≈ 2070 µM) | 800 (≈ 2070 µM) | 800 (≈ 2070 µM) | 800 (≈ 2070 µM) | 800 (≈ 2070 µM) | 800 (≈ 2070 µM) | 800 (≈ 2070 µM) | 800 (≈ 2070 µM) | 800 (≈ 2070 µM) | 800 (≈ 2070 µM) |
| Cc1ccc(Nn2c(SCC(=O)c3ccc(Cl)cc3)nc(C)c2C)cc1 | 200 (≈ 518 µM) | 400 (≈ 1040 µM) | 800 (≈ 2070 µM) | 400 (≈ 1040 µM) | 800 (≈ 2070 µM) | 400 (≈ 1040 µM) | 400 (≈ 1040 µM) | 800 (≈ 2070 µM) | 800 (≈ 2070 µM) | 400 (≈ 1040 µM) | 800 (≈ 2070 µM) |
| Cc1ccc(Nn2c(SCC(=O)c3ccc(Cl)c(Cl)c3)nc(C)c2C)cc1 | 800 (≈ 1900 µM) | 800 (≈ 1900 µM) | 800 (≈ 1900 µM) | 800 (≈ 1900 µM) | 800 (≈ 1900 µM) | 400 (≈ 952 µM) | 400 (≈ 952 µM) | 800 (≈ 1900 µM) | 800 (≈ 1900 µM) | 400 (≈ 952 µM) | 800 (≈ 1900 µM) |
| COc1ccc(Nn2c(SCC(=O)c3ccccc3)nc(C)c2C)cc1 | 800 (≈ 2180 µM) | 800 (≈ 2180 µM) | 800 (≈ 2180 µM) | 800 (≈ 2180 µM) | 800 (≈ 2180 µM) | 100 (≈ 272 µM) | 800 (≈ 2180 µM) | 800 (≈ 2180 µM) | 800 (≈ 2180 µM) | 800 (≈ 2180 µM) | 800 (≈ 2180 µM) |
| COc1ccc(Nn2c(SCC(=O)c3cccc(OC)c3)nc(C)c2C)cc1 | 800 (≈ 2010 µM) | 800 (≈ 2010 µM) | 800 (≈ 2010 µM) | 800 (≈ 2010 µM) | 800 (≈ 2010 µM) | 200 (≈ 503 µM) | 800 (≈ 2010 µM) | 800 (≈ 2010 µM) | 800 (≈ 2010 µM) | 800 (≈ 2010 µM) | 800 (≈ 2010 µM) |
| COc1ccc(C(=O)CSc2nc(C)c(C)n2Nc2ccc(OO)cc2)cc1 | 400 (≈ 1000 µM) | 800 (≈ 2000 µM) | 800 (≈ 2000 µM) | 400 (≈ 1000 µM) | 800 (≈ 2000 µM) | 800 (≈ 2000 µM) | 800 (≈ 2000 µM) | 800 (≈ 2000 µM) | 800 (≈ 2000 µM) | 800 (≈ 2000 µM) | 800 (≈ 2000 µM) |
| COc1ccc(Nn2c(SCC(=O)c3ccc(OC)c(OC)c3)nc(C)c2C)cc1 | 200 (≈ 468 µM) | 400 (≈ 936 µM) | 800 (≈ 1870 µM) | 200 (≈ 468 µM) | 800 (≈ 1870 µM) | 1600 (≈ 3740 µM) | 800 (≈ 1870 µM) | 800 (≈ 1870 µM) | 800 (≈ 1870 µM) | 800 (≈ 1870 µM) | 800 (≈ 1870 µM) |
| COc1ccc(Nn2c(SCC(=O)c3cccc(F)c3)nc(C)c2C)cc1 | 400 (≈ 1040 µM) | 400 (≈ 1040 µM) | 400 (≈ 1040 µM) | 400 (≈ 1040 µM) | 400 (≈ 1040 µM) | 800 (≈ 2080 µM) | 400 (≈ 1040 µM) | 400 (≈ 1040 µM) | 800 (≈ 2080 µM) | 800 (≈ 2080 µM) | 800 (≈ 2080 µM) |
| COc1ccc(Nn2c(SCC(=O)c3ccc(F)cc3)nc(C)c2C)cc1 | 400 (≈ 1040 µM) | 400 (≈ 1040 µM) | 400 (≈ 1040 µM) | 400 (≈ 1040 µM) | 800 (≈ 2080 µM) | 800 (≈ 2080 µM) | 1600 (≈ 4150 µM) | 800 (≈ 2080 µM) | 800 (≈ 2080 µM) | 800 (≈ 2080 µM) | 800 (≈ 2080 µM) |
| COc1ccc(Nn2c(SCC(=O)c3ccc(F)c(F)c3)nc(C)c2C)cc1 | 400 (≈ 991 µM) | 800 (≈ 1980 µM) | 800 (≈ 1980 µM) | 400 (≈ 991 µM) | 800 (≈ 1980 µM) | 800 (≈ 1980 µM) | 1600 (≈ 3970 µM) | 800 (≈ 1980 µM) | 800 (≈ 1980 µM) | 800 (≈ 1980 µM) | 800 (≈ 1980 µM) |
| COc1ccc(Nn2c(SCC(=O)c3cccc(Cl)c3)nc(C)c2C)cc1 | 400 (≈ 995 µM) | 800 (≈ 1990 µM) | 800 (≈ 1990 µM) | 800 (≈ 1990 µM) | 800 (≈ 1990 µM) | 800 (≈ 1990 µM) | 800 (≈ 1990 µM) | 800 (≈ 1990 µM) | 800 (≈ 1990 µM) | 800 (≈ 1990 µM) | 800 (≈ 1990 µM) |
| COc1ccc(Nn2c(SCC(=O)c3ccc(Cl)cc3)nc(C)c2C)cc1 | 400 (≈ 995 µM) | 400 (≈ 995 µM) | 400 (≈ 995 µM) | 400 (≈ 995 µM) | 400 (≈ 995 µM) | 800 (≈ 1990 µM) | 400 (≈ 995 µM) | 800 (≈ 1990 µM) | 400 (≈ 995 µM) | 400 (≈ 995 µM) | 800 (≈ 1990 µM) |
